Paper PMC7864055, “Biochemical and biophysical analyses of hypoxia sensing prolyl hydroxylases from Dictyostelium discoideum and Toxoplasma gondii” (The Journal of Biological Chemistry, 2021)

Key:
[1] = target: T1, TgPhyA (Toxoplasma gondii, UniProt A0A7J6K353); experiment: differential scanning fluorimetry, SYPRO Orange; type: binding; conditions: with metal (Ni(II)); 25-80 °C
T1 construct: gene TGRH88_076950; full-length, recombinant; purification in Supporting information
T1 sequence (A0A7J6K353 1-271): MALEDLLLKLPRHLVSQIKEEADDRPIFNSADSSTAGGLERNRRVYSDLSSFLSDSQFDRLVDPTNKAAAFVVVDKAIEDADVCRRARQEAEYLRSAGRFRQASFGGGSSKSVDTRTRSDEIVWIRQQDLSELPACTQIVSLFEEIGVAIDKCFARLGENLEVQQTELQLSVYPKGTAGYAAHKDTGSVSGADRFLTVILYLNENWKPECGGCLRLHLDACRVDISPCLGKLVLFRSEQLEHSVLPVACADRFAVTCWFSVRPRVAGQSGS

[2] = target: T2, DdPhyA (Dictyostelium discoideum, UniProt Q86KR9); experiment: differential scanning fluorimetry, SYPRO Orange; type: binding; conditions: with metal (Ni(II)); 25-80 °C; construct (full-length or truncated) not told in main text
T2 construct: gene phyA; full-length aa 1-284, E. coli BL21 Gold (DE3), N-terminal His6-ZBasic tag cleaved by TEV, EDTA-treated to remove metal
T2 sequence (Q86KR9 whole entry, the tested form may be a part): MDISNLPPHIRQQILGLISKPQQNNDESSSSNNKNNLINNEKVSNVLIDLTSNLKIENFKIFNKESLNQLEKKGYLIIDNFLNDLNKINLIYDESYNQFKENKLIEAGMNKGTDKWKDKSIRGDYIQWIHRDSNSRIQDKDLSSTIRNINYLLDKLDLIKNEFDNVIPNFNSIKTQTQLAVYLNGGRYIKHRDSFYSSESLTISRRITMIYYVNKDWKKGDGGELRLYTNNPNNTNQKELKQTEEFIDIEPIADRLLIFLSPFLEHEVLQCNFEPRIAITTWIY

[3] = target: T3, DdPhyA(60-284) (Dictyostelium discoideum, UniProt Q86KR9); experiment: X-ray crystallography, […] Å; type: binding; conditions: Ni(II) in place of Fe(II); active site, bidentate to metal, no Skp1 substrate
T3 construct: gene phyA; catalytic domain residues 60-284 (once printed 60-286), E. coli, His6-ZBasic tag cleaved; 3 molecules per asymmetric unit; Ni(II) substituting for Fe(II)
T3 sequence (Q86KR9 60-284): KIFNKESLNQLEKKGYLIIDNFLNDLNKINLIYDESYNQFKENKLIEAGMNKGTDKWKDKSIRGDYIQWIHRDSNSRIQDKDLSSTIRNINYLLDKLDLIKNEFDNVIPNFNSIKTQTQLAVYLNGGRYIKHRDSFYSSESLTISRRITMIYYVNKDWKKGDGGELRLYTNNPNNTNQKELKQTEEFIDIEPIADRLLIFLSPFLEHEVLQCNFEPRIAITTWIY
Source text: The C-5 carboxylate of NOG is bound

[4] = target: T1, TgPhyA; experiment: 1H NMR of 2OG conversion to succinate; type: biochemical; conditions: uncoupled (no Skp1); enzyme 20 μM, 2OG 500 μM, Fe(II) 50 μM, ascorbate 1 mM, Tris-D11 pH 7.5, room temperature

Row | SMILES | Tm shift [1] | Tm shift [2] | X-ray crystallography, 2.02 Å [3] | 2OG turnover [4]
1 | O=C(O)CNC(=O)C(=O)O [NOG] | Ni(II) ions and N-oxalylglycine (a stable 2OG analog, Fig. S9) stabilize the enzymes | Ni(II) ions and N-oxalylglycine (a stable 2OG analog, Fig. S9) stabilize the enzymes | the latter in a bidentate manner. The C-5 carboxylate of NOG is bound | –
2 | O=C(O)CCC(=O)C(=O)O [2OG] | – | – | – | TgPhyA exhibited substantial uncoupled 2OG turnover in the absence of substrate
